Earlier results on three compounds are cited in PubChem BioAssay AID1259409 (Chemical Carcinogenesis Research Information System (CCRIS), 2018).

In this series the test system is rodent chemically induced tumor inhibition, incidence and multiplicity. In words: CCRIS tumor inhibitor studies.

Each structure is given as a SMILES string.

In the case of `CC1=C(/C=C/C(C)=C/C=C/C(C)=C/C(=O)NCC(O)CO)C(C)(C)CCC1` (stereo unspecified), the “tumour outcome (control, treated, inhibition, significance)” value was 31/55 (56%), 25/54 (46%), 18%, not significant (Carcinogen: N-BUTYL-N-(4-HYDROXYBUTYL)NITROSAMINE, 3817-11-6, Dose [Inhibitor]: 1.5 MMOL/KG/D IN DIET FOR 108 D STARTING 1 WK POST CARCINOGEN TREATMENT (STUDY DURATION: 171 D), Route [Inhibitor]: ORAL, Species: MOUSE, Strain/Sex: BDF/MALE, Target Tissue: Type of Lesion: URINARY BLADDER: TRANSITIONAL CELL CARCINOMA, Dose [Carcinogen]: 5 MG 2/WK FOR 9 WK, Promoter: NONE USED); 38%, 35%, 8%, not calculated (Carcinogen: N-NITROSOBIS(2-OXOPROPYL)AMINE, 60599-38-4, Dose [Inhibitor]: 0.25 MMOL/KG OF DIET FOR 184 D STARTING 2 WK AFTER LAST CARCINOGEN DOSE WITH 4 INTERMITTENT 1 WK REST PERIODS OF VEHICLE, Route [Inhibitor]: ORAL, Species: HAMSTER, Strain/Sex: SYRIAN/FEMALE, Target Tissue: Type of Lesion: PANCREAS: CARCINOMA, Dose [Carcinogen]: 20 MG/KG INJECTION GIVEN TWICE 1 WK APART, Promoter: NONE USED); 34%, 43%, -26%, not calculated (Carcinogen: N-NITROSOBIS(2-OXOPROPYL)AMINE, 60599-38-4, Dose [Inhibitor]: 0.25 MMOL/KG OF DIET FOR 184 D STARTING 2 WK AFTER LAST CARCINOGEN DOSE WITH 4 INTERMITTENT 1 WK REST PERIODS OF VEHICLE, Route [Inhibitor]: ORAL, Species: HAMSTER, Strain/Sex: SYRIAN/MALE, Target Tissue: Type of Lesion: PANCREAS: CARCINOMA, Dose [Carcinogen]: 20 MG/KG INJECTION GIVEN TWICE 1 WK APART, Promoter: NONE USED); 5%, 28%, -460%, not calculated (Carcinogen: N-NITROSOBIS(2-OXOPROPYL)AMINE, 60599-38-4, Dose [Inhibitor]: 0.25 MMOL/KG OF DIET FOR 350 D STARTING 2 WK AFTER LAST CARCINOGEN DOSE AND INTERRUPTED TWICE BY 1 WK REST PERIODS OF VE, Route [Inhibitor]: ORAL, Species: HAMSTER, Strain/Sex: SYRIAN/FEMALE, Target Tissue: Type of Lesion: LIVER: HEPATOCELLULAR CARCINOMA, Dose [Carcinogen]: 20 MG/KG INJECTION GIVEN TWICE 1 WK APART, Promoter: NONE USED); 7%, 14%, -100%, not calculated (Carcinogen: N-NITROSOBIS(2-OXOPROPYL)AMINE, 60599-38-4, Dose [Inhibitor]: 0.25 MMOL/KG OF DIET FOR 350 D STARTING 2 WK AFTER LAST CARCINOGEN DOSE AND INTERRUPTED TWICE BY 1 WK REST PERIODS OF VE, Route [Inhibitor]: ORAL, Species: HAMSTER, Strain/Sex: SYRIAN/MALE, Target Tissue: Type of Lesion: LIVER: HEPATOCELLULAR CARCINOMA, Dose [Carcinogen]: 20 MG/KG INJECTION GIVEN TWICE 1 WK APART, Promoter: NONE USED); 5%, 0%, 100%, not calculated (Carcinogen: N-NITROSOBIS(2-OXOPROPYL)AMINE, 60599-38-4, Dose [Inhibitor]: 0.5 MMOL/KG OF DIET FOR 153 D STARTING 2 WK AFTER LAST CARCINOGEN DOSE WITH 4 INTERMITTENT 1 WK REST PERIODS OF VEHICLE-, Route [Inhibitor]: ORAL, Species: HAMSTER, Strain/Sex: SYRIAN/FEMALE, Target Tissue: Type of Lesion: LIVER: HEPATOCELLULAR CARCINOMA, Dose [Carcinogen]: 20 MG/KG INJECTION GIVEN TWICE 1 WK APART, Promoter: NONE USED). Besides, the “tumour outcome (control, treated, inhibition, significance)” value runs as follows: (Carcinogen: N-NITROSOBIS(2-OXOPROPYL)AMINE, 60599-38-4, Dose [Inhibitor]: 0.5 MMOL/KG OF DIET FOR 153 D STARTING 2 WK AFTER LAST CARCINOGEN DOSE WITH 4 INTERMITTENT 1 WK REST PERIODS OF VEHICLE-, Route [Inhibitor]: ORAL, Species: HAMSTER, Strain/Sex: SYRIAN/FEMALE, Target Tissue: Type of Lesion: PANCREAS: NEOPLASM, Dose [Carcinogen]: 20 MG/KG INJECTION GIVEN TWICE 1 WK, Promoter: NONE USED) 38%, 21%, 45%, not calculated; (Carcinogen: N-NITROSOBIS(2-OXOPROPYL)AMINE, 60599-38-4, Dose [Inhibitor]: 0.5 MMOL/KG OF DIET FOR 153 D STARTING 2 WK AFTER LAST CARCINOGEN DOSE WITH 4 INTERMITTENT 1 WK REST PERIODS OF VEHICLE-, Route [Inhibitor]: ORAL, Species: HAMSTER, Strain/Sex: SYRIAN/MALE, Target Tissue: Type of Lesion: PANCREAS: CARCINOMA, Dose [Carcinogen]: 20 MG/KG INJECTION GIVEN TWICE 1 WK APART, Promoter: NONE USED) 34%, 36%, -6%, not calculated.
As for `C[S+](CC[C@H](N)C(=O)[O-])C[C@H]1O[C@@H](n2cnc3c(N)ncnc32)[C@H](O)[C@@H]1O` (stereo partly specified), the “tumour outcome (control, treated, inhibition, significance)” value reads like this: (Carcinogen: 1,2-DIMETHYLHYDRAZINE, 540-73-8, Dose [Inhibitor]: 0, 96 UMOL/KG 4/D FOR 32 WK BEGINNING 1 WK POST CARCINOGEN DOSE (STUDY DURATION: 33 WK), Route [Inhibitor]: INTRAMUSCULAR, Species: RAT, Strain/Sex: F344/MALE, Target Tissue: Type of Lesion: LIVER: HEPATOCELLULAR CARCINOMA, Dose [Carcinogen]: 100 MG/KG ONCE 18 HR AFTER RATS WERE SUBJECTED TO TWO-THIRDS HEPATECTOMY, Promoter: OROTIC ACID, 65-86-1) 6/16 (38%), 1/24 (4%), 89%, not calculated; (Carcinogen: DIETHYLNITROSAMINE, 55-18-5, N-ACETYLAMINOFLUORENE, 53-96-3, Carcinogen: DIETHYLNITROSAMINE, 55-18-5, N-ACETYLAMINOFLUORENE, 53-96-3, Dose [Inhibitor]: 0, 64 UMOL/KG 6/D FOR 24 WK BEGINNING POST CARCINOGEN TREATMENT (STUDY DURATION: 28 MO), Route [Inhibitor]: INTRAMUSCULAR, Species: RAT, Strain/Sex: WISTAR/MALE, Target Tissue: Type of Lesion: LIVER: CARCINOMA, Dose [Carcinogen]: 150 MG/KG DEN ONCE THEN 2 WK LATER 0.03% AAF IN DIET FOR 2 WK WITH A PARTIAL HEPATECTOMY PERFORMED MIDWAY THROUGH CARCIN, Promoter: PHENOBARBITAL, 50-06-6) 10/10 (100%), 3/11 (27%), 73%, p<0.025.
Take `COC(=O)/C(C)=C/C=C/C(C)=C\C=C\C=C(C)\C=C\C=C(C)\C=C\C1=C(C)CCCC1(C)C`: for the setting “Carcinogen: BENZO[A]PYRENE, 50-32-8, Dose [Inhibitor]: 0, 4.7 MICROMOLAR/D IN 0.1 ML PEANUT OIL BEGINNING 2 WK PRIOR TO CARCINOGEN TREATMENT AND CONTINUING TO 2 WK POST CARCIN, Route [Inhibitor]: GAVAGE, Species: MOUSE, Strain/Sex: SWISS/FEMALE, Target Tissue: Type of Lesion: FORESTOMACH: TUMOR, Dose [Carcinogen]: 1 MG 2/WK IN 0.1 ML PEANUT OIL FOR 4 WK, Promoter: NONE USED”, the “tumour outcome (control, treated, inhibition, significance)” value is given as 20/20 (100%), 4/20 (20%), 80%, p<0.001.
